Assay results published in patent US20100196275A1, “Methods and products for neutralizing the harmful effects of combustion products” (priority 2006, published 2010).
“Also recorded” adds a separate entry of the source.

How the values were obtained:
[1] = system: nucleotide excision repair (NER); settings: previously found, earlier publications; cited from earlier work
[2] = system: nucleotide excision repair (NER); assay: Host cell reactivation (HCR) assay; assay type: cell-based, human; settings: NHLF treated with Acr for 1 h, BPDE-modified luciferase plasmid
Description: (§1) Determination of the Effect of Acr Treatment on DNA Repair. Host cell reactivation (HCR) and in vitro DNA repair synthesis assays were performed as previously described to determine the effects of Acr treatment on DNA repair in human cells (Feng, Z., Hu, W., & Tang, M.-s. (2004) Proc. Nat. Acad. Sci. 101, 8598-8602; Feng, Z., Hu, W., Marnett, L., & Tang, M.-s. Mutat. Res. in press).

[3] = system: nucleotide excision repair (NER); assay: In vitro DNA damage-specific repair synthesis assay; assay type: biochemical, human
Description: as §1

supF gene = assay: supF shuttle vector pSP189 mutation assay in NHLF; assay type: cell-based, human; design: dose or concentration left out as unconfirmed; settings: pSP189 modified with Acr, replicated in NHLF
Description: Determination of Mutations Induced by Acr-DNA Adducts. The methods used for mutation detection and for mutational spectrum determination were the same as previously described (Feng, Z., Hu, W., Amin, S., & Tang, M.-s. (2003) Biochemistry 42, 7848-7854). Briefly, shuttle vector pSP189 plasmid DNA was modified with different concentrations of Acr, and transfected into NHLF for replication. Plasmids were recovered 72 h after transfection, and replicated plasmids were then transformed into MB7070 E. coli indicator cells. The supF gene in plasmids isolated from mutant white colonies were then sequenced.

[4] = rats; cited from earlier work

Row | Compound | effect on cellular NER capacity [1] | effect on repair of BPDE-DNA adducts (NER capacity) [2] | inhibitory effect, cell lysates directly treated versus whole cells treated ([3]; NHLF) | effect on repair of BPDE-DNA adducts (NER capacity) ([3]; NHLF cell extracts, BPDE-modified pUC18) | G to T transversions among base substitution mutants sequenced (supF gene) | mutation frequency (supF gene) | share of G to T transversions among base substitutions (supF gene) | bladder tumour occurrence [4]
1 | CCCCCC(O)/C=C/C=O (stereo not drawn) [4-HNE] | greatly reduce cellular nucleotide excision repair (NER) capacity |  |  |  |  |  |  | 
2 | C=CC=O [Acr, Acrolein] |  | greatly inhibit NER for BPDE-induced DNA damage | much more pronounced in cell lysates directly treated with Acr than whole cells treated with Acr | greatly inhibit NER for BPDE-induced DNA damage | 28 out of 55 | 120×10^−4 | more than 50% | greatly enhances urinary bladder papilloma occurrence in rats; also recorded: cause bladder cancer in rats
3 | O=CCC=O [MDA] | greatly reduce cellular nucleotide excision repair (NER) capacity |  |  |  |  |  |  | 
